Test results taken from patent US9440957B2, “Compounds and compositions for modulating EGFR Activity” (Novartis AG, priority 2012, dated 2016).
Like-named read-outs stand apart in the source and are kept apart here.

Assays:
[1] = biological target: human EGFR L858R/T790M (NIH/3T3 cells) (Homo sapiens, UniProt P00533, L858R/T790M); test: EGFR target modulation in engineered NIH/3T3 cell lines (phospho-EGFR Y1068 AlphaLISA), EGFR L858R/T790M; type: cell-based; conditions: engineered NIH/3T3 cells, read-out: NIH3T3 IC50 (μM) EGFR (L858R/T790M)
human EGFR L858R/T790M (NIH/3T3 cells), sequence (P00533 25-1210 T790M/L858R): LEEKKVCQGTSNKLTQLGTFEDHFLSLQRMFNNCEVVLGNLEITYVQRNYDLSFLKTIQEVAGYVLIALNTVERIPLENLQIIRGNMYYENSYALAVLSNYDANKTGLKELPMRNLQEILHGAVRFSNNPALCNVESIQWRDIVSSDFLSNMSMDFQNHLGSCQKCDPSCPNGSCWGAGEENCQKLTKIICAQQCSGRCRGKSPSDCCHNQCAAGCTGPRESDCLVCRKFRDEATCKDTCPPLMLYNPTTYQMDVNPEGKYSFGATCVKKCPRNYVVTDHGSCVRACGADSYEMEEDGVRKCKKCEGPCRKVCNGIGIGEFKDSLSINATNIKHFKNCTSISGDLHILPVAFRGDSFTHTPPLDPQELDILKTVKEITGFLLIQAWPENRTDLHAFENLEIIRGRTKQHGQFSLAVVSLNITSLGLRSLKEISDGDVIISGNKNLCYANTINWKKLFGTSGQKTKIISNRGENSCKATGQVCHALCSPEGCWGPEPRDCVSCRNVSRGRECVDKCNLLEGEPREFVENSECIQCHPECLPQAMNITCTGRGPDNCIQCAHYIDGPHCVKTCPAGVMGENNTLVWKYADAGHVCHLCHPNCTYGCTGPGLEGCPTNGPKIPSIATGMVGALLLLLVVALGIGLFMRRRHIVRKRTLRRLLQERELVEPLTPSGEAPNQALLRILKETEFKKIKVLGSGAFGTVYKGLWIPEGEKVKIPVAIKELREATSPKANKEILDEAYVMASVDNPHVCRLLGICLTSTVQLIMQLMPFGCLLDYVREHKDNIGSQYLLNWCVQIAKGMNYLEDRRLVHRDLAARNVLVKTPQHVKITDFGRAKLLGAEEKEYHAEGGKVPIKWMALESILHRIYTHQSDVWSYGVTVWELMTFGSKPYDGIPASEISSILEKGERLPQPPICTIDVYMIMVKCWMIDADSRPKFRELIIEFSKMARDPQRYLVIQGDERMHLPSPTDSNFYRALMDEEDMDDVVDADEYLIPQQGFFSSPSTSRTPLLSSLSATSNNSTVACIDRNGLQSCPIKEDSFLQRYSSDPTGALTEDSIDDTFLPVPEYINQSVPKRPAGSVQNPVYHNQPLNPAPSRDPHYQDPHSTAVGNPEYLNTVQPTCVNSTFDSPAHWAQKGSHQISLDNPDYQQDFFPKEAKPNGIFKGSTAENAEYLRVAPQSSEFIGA
Protocol: (§1) EGFR Target Modulation in Engineered NIH/3T3 Cell Lines Tissue Culture.
(§2) The cells were harvested with 0.05% Trypsin/EDTA (Hyclone #SH30236.01), re-suspended in 5% FBS/DMEM Pen/Strep without Puromycin and plated at 9,000 cells per well in 50 μl of media in a 384-well black plate with clear bottoms (Greiner #789068G). The cells were allowed to incubate overnight in a 37° C., 5% CO2 humidified tissue culture incubator. A 12-point test compound curve was prepared by serial diluting a 10 μM stock 1:3 in DMSO in a 384-well compound plate (Greiner #789201L). The serial diluted compounds were transferred to the plate containing cells by using a 50 nl Pin Head device (Perkin Elmer) and the cells were placed back in the incubator for 3 hours. Only the EGFR WT-expressing cells were induced with 50 ng/ml EGF (Preprotech #AF-100-15) for 5 minutes before lysis. […] The plates were shaken at 4° C. for 5 minutes with foil top at maximum speed. […] The plates were sealed with a foil top and frozen at −80° C. and thawed when needed.
(§3) The frozen aliquots were thawed and briefly centrifuged. All antibodies and beads were diluted in 1× AlphaLISA HiBlock Buffer (PE #AL004C). […] Goat anti-total EGFR (R&D Systems #AF231) was added and allowed to equilibrate for 1 hour at room temperature at 1 nM final concentration.
(§4) With these parameters, the IC50's for each compound in each cell line was calculated using non-linear curve fitting analysis.

EGFR(L858R/T790M) = biological target: T1, EGFR(L858R/T790M) (Homo sapiens, UniProt P00533, L858R/T790M); test: EGFR biochemical assay (HTRF), IC50 determinations
T1 construct: purchased from Carna (GST-a.a. 669-1210)
T1 sequence (P00533 669-1210 T790M/L858R): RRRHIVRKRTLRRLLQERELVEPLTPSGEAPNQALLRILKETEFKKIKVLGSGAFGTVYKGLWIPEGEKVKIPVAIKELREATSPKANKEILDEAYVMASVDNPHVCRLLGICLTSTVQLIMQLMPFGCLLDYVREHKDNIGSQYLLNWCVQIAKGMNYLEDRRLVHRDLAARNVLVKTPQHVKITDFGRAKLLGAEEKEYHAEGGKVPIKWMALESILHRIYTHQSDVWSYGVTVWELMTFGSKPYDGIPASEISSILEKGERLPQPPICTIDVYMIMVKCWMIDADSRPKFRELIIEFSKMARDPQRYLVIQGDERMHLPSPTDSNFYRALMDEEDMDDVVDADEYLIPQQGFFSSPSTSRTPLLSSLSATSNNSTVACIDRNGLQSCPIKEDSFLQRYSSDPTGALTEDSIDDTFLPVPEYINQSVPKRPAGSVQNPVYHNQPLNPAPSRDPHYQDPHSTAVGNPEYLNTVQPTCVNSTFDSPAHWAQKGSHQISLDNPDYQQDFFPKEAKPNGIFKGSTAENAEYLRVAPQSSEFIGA
Protocol: All EGFR biochemical assays were carried out by HTRF method. […] The substrate peptide Biotin-TK-peptide was purchased from Cis-Bio. […] All reactions were carried out at room temperature in white ProxiPlate™ 384-well Plus plates (PerkinElmer) and were quenched with 5 μL of 0.2 M EDTA at 60 min. Five L of the detection reagents (2.5 ng PT66K and 0.05 μg SAXL per well) were added, the plates were incubated at room temperature for 1 h and then read in EnVision reader. […] For no-preincubation condition, the compounds were added to the assay solution containing ATP and peptide, and the reaction was initiated by addition of enzyme. For pre-incubation conditions, the compounds were added to the assay solution containing enzyme and peptide, and pre-incubated at room temperature for desired period of time, then the reaction was initiated by addition of ATP.

[2] = biological target: human EGFR WT (NIH/3T3 cells, EGF-induced) (Homo sapiens, UniProt P00533); test: EGFR target modulation in engineered NIH/3T3 cell lines (phospho-EGFR Y1068 AlphaLISA), EGFR WT; type: cell-based; conditions: engineered NIH/3T3 cells, read-out: NIH3T3 IC50 (μM) EGFR (WT)
human EGFR WT (NIH/3T3 cells, EGF-induced), sequence (P00533 25-1210): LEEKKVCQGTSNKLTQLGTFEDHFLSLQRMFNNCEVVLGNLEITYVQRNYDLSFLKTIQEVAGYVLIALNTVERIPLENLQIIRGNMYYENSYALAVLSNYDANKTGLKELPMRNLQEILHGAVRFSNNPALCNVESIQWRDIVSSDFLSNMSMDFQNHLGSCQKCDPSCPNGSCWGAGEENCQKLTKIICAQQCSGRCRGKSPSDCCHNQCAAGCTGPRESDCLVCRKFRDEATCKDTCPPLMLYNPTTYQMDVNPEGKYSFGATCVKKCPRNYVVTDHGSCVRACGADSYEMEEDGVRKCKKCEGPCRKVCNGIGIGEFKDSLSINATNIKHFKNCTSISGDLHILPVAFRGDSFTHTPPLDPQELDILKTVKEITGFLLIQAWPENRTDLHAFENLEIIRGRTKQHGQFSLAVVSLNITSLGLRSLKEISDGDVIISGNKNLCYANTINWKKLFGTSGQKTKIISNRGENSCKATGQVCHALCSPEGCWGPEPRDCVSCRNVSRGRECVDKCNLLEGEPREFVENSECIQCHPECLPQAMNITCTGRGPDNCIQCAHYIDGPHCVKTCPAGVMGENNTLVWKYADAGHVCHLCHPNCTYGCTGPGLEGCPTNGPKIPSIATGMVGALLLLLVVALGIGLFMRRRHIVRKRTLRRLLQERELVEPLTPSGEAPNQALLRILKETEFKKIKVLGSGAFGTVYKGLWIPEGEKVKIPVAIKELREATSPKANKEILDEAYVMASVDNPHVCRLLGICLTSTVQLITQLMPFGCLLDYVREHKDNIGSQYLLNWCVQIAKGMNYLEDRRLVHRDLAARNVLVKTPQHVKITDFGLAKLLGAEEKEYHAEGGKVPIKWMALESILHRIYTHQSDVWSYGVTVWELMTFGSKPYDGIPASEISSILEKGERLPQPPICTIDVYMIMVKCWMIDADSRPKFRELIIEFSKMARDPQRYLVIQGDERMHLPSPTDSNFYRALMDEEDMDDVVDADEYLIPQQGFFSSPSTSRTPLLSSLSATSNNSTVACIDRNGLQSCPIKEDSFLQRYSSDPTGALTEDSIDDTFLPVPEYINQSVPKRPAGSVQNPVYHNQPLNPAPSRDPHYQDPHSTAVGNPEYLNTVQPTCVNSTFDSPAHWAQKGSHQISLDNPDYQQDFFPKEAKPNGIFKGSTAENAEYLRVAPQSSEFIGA
Protocol: as §1, §2, §3, §4

[3] = biological target: human EGFR L858R (NIH/3T3 cells) (Homo sapiens, UniProt P00533, L858R); test: EGFR target modulation in engineered NIH/3T3 cell lines (phospho-EGFR Y1068 AlphaLISA), EGFR L858R; type: cell-based; conditions: engineered NIH/3T3 cells, read-out: NIH3T3 IC50 (μM) EGFR (L858R)
human EGFR L858R (NIH/3T3 cells), sequence (P00533 25-1210 L858R): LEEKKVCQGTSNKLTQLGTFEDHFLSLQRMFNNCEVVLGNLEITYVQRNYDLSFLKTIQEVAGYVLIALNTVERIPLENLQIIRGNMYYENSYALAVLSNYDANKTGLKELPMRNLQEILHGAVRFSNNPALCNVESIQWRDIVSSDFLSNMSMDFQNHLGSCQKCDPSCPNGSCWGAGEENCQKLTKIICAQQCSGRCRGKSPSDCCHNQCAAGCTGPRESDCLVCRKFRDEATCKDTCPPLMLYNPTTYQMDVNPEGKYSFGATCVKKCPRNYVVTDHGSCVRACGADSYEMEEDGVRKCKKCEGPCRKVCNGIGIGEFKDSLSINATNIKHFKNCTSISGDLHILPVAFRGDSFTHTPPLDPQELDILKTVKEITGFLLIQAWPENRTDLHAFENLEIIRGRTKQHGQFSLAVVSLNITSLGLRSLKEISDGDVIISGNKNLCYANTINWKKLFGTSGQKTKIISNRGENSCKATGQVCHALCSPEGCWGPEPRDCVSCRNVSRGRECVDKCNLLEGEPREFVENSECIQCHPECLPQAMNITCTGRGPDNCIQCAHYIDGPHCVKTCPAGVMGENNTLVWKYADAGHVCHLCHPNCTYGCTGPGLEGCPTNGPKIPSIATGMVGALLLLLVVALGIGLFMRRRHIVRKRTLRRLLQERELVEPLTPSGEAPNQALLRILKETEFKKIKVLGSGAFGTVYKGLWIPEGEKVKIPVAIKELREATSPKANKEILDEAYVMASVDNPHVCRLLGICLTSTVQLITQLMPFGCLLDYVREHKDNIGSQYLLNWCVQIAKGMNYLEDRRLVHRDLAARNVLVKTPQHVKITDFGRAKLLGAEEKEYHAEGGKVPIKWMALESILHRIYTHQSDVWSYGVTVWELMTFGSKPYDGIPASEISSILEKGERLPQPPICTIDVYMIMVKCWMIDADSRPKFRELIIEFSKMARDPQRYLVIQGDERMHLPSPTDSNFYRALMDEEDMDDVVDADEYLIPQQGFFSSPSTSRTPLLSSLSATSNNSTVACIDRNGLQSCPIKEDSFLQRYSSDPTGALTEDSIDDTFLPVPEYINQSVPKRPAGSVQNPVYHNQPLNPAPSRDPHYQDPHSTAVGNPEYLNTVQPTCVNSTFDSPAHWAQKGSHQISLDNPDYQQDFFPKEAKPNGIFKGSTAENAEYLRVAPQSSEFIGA
Protocol: as §1, §2, §3, §4

[4] = EGFR (L858R/T790M) with 90 min pre-incubation, read-out: IC50 (μM) Column B
[5] = EGFR (L858R/T790M) with no pre-incubation, read-out: IC50 (μM) Column A

SMILES | IC50 [1] [µM] | IC50 (EGFR(L858R/T790M); [4]) [µM] | IC50 (EGFR(L858R/T790M); [5]) [µM] | IC50 [2] [µM] | IC50 [3] [µM]
C=CC(=O)N1CCCC[C@@H](n2c(NC(=O)c3cccc(C(F)(F)F)c3)nc3ccccc32)C1 [Example 17-13] | 0.001 | < 0.001 | 0.006 | 0.43 | 0.008
C=CS(=O)(=O)N1CCCCC(n2c(NC(=O)c3cccc(C(F)(F)F)c3)nc3cccc(C)c32)C1 (stereo not drawn) [Example 10, N-(7-methyl-1-(1-(vinylsulfonyl)azepan-3-yl)-1H-benzo[d]imidazol-2-yl)-3-(trifluoromethyl)benzamide] | 0.037 | 0.009 | 0.39 | > 10 | 0.34
Cc1cccc2nc(NC(=O)c3cnco3)n(C3CCCCN(C(=O)/C=C/CN(C)C)C3)c12 (stereo not drawn) [Example 17-5] | 0.011 | 0.001 | 0.022 | 0.172 | 0.008
C=CC(=O)N1CCCCC(n2c(NC(=O)c3ccccc3)nc3cccc(C)c32)C1 (stereo not drawn) [Example 17-11] | 0.002 | < 0.001 | < 0.001 | 1.54 | 0.015
CCOc1cc(C(=O)Nc2nc3cccc(C)c3n2C2CCCCN(C(=O)/C=C/CN(C)C)C2)ccn1 (stereo not drawn) [Example 17-65] | 0.002 | < 0.001 | 0.004 | 0.012 | 0.002
Cc1cccc2nc(NC(=O)c3ccc4nccn4c3)n(C3CCCCN(C(=O)/C=C/CN(C)C)C3)c12 (stereo not drawn) [Example 17-55] | 0.003 | < 0.001 | 0.007 | 0.022 | 0.002
Cc1cccc2nc(NC(=O)c3ccc4ccccc4c3)n(C3CCCCN(C(=O)/C=C/CN(C)C)C3)c12 (stereo not drawn) [Example 17-66] | 0.009 | < 0.001 | 0.005 | 0.129 | 0.005
C=CC(=O)N1CCOCC(n2c(NC(=O)c3cccc(C(F)(F)F)c3)nc3cccc(C)c32)C1 (stereo not drawn) [Example 17-14] | 0.003 | 0.005 | 0.033 | 1.08 | 0.016
Cc1cccc2nc(NC(=O)c3cccnc3)n(C3CCCCN(C(=O)/C=C/CN(C)C)C3)c12 (stereo not drawn) [Example 17-23] | 0.003 | < 0.001 | 0.003 | 0.149 | 0.004
C/C=C/C(=O)N1CCCCC(n2c(NC(=O)c3cccc(C(F)(F)F)c3)nc3cccc(C)c32)C1 (stereo not drawn) [Example 17-20] | 0.073 | 0.032 | 0.43 | > 10 | 0.75
C=C(CN1CCCCC1)C(=O)N1CCCC[C@@H](n2c(NC(=O)c3ccnnc3)nc3cccc(C)c32)C1 [Example 17-90] | 0.055 | 0.013 | 0.199 | 0.76 | 0.054
C=CC(=O)N1CCCC(n2c(NC(=O)c3cccc(C(F)(F)F)c3)nc3ccncc32)C1 (stereo not drawn) [Example 17-9] | 0.194 | 0.218 | 4.1 | > 10 | 8.6
Cc1cccc2nc(NC(=O)c3cc(F)cc(F)c3)n(C3CCCCN(C(=O)/C=C/CN(C)C)C3)c12 (stereo not drawn) [Example 17-22] | 0.002 | < 0.001 | 0.003 | 0.271 | 0.004
CC#CC(=O)N1CCCCC(n2c(NC(=O)c3cccc(C(F)(F)F)c3)nc3cccc(C)c32)C1 (stereo not drawn) [Example 17-19] | 0.044 | 0.007 | 0.33 | > 10 | 0.33
Cc1cccc2nc(NC(=O)c3ncccn3)n(C3CCCCN(C(=O)/C=C/CN(C)C)C3)c12 (stereo not drawn) [Example 17-36] | 2.96 | 0.35 | 10.6 | > 10 | 3.5
Cc1cccc2nc(NC(=O)c3cccnn3)n(C3CCCCN(C(=O)/C=C/CN(C)C)C3)c12 (stereo not drawn) [Example 17-39] | 0.072 | 0.007 | 0.12 | 5.2 | 0.221
Cc1ncc(C(=O)Nc2nc3cccc(C)c3n2C2CCCCN(C(=O)/C=C/CN(C)C)C2)s1 (stereo not drawn) [Example 17-64] | 0.005 | 0.001 | 0.02 | 0.021 | 0.002
Cc1cccc2nc(NC(=O)c3ccnc(N4CCCCC4)c3)n(C3CCCCN(C(=O)/C=C/CN(C)C)C3)c12 (stereo not drawn) [Example 17-57] | 0.002 | < 0.001 | < 0.001 | 0.02 | < 0.001
COC1CN(C/C=C/C(=O)N2CCCC[C@@H](n3c(NC(=O)c4ccnc(C)c4)nc4cccc(Cl)c43)C2)C1 [Example 3-14] | 0.012 | < 0.001 | 0.012 | 0.78 | 0.011
Cc1cccc2nc(NC(=O)c3cccc(Cl)c3)n(C3CCCCN(C(=O)/C=C/CN(C)C)C3)c12 (stereo not drawn) [Example 17-43] | 0.004 | < 0.001 | 0.006 | 0.48 | 0.014

The remaining lines, values ahead:

IC50 [1] [µM] | IC50 (EGFR(L858R/T790M); [4]) [µM] | IC50 (EGFR(L858R/T790M); [5]) [µM] | IC50 [2] [µM] | IC50 [3] [µM] | SMILES
0.002 | < 0.001 | 0.005 | 0.311 | 0.01 | C=CC(=O)N1CCCC[C@@H](n2c(NC(=O)c3ccccc3)nc3cccc(CO)c32)C1 [Example 17-131]
0.82 | 0.005 | 0.11 | > 10 | 3.3 | C=CC(=O)N1CCCCC(n2c(NC(=O)c3cccc(C(F)(F)F)c3)nc3cccc(C(=O)O)c32)C1 (stereo not drawn) [Example 20, 1-(1-acryloylazepan-3-yl)-2-(3-(trifluoromethyl)benzamido)-1H-benzo[d]imidazole-7-carboxylic acid]
0.45 | 0.098 | 0.7 | > 10 | 2.2 | C=CC(=O)N1CCCC[C@H](n2c(NC(=O)c3cccc(C(F)(F)F)c3)nc3cccc(C)c32)C1 (single isomer, unassigned) [Example 21-3]
0.46 | 0.119 | 10.8 | > 10 | 4.7 | C=CC(=O)N1CCC[C@@H](n2c(NC(=O)c3cccc(C(F)(F)F)c3)nc3cc(C(=O)OC)ccc32)C1 [Example 17-110]
0.14 | 0.186 | 1.75 | 8.2 | 1.75 | C=CC(=O)N1CCCC(n2c(NC(=O)c3cccc(C(F)(F)F)c3)nc3c2CCN(C(C)=O)C3)C1 (stereo not drawn) [Example 17-169]
0.35 | 0.059 | 0.39 | 4.2 | 0.281 | C=C(CN1CCOCC1)C(=O)N1CCCC[C@@H](n2c(NC(=O)c3ccnnc3)nc3cccc(C)c32)C1 [Example 17-93]
0.057 | 0.012 | 0.213 | 1.83 | 0.043 | C=C(CN(CC)CC)C(=O)N1CCCC[C@@H](n2c(NC(=O)c3ccnnc3)nc3cccc(C)c32)C1 [Example 17-92]
0.004 | < 0.001 | 0.002 | 0.137 | 0.003 | C=CC(=O)N1CCCC[C@@H](n2c(NC(=O)c3ccnc(C)c3)nc3cc(CN4CC[C@H](O)C4)cc(C)c32)C1 [Example 17-146]
0.016 | 0.006 | 0.119 | 1.41 | 0.094 | C=CC(=O)N1CCCC[C@@H](n2c(NC(=O)c3ccccc3)nc3cccc(COCCOC)c32)C1 [Example 17-130]
0.86 | 0.028 | 0.69 | > 10 | 8.2 | C=CC(=O)N1CCC[C@@H](n2c(NC(=O)c3cccc(C(F)(F)F)c3)nc3cc(CN4C[C@@H](O)[C@H](O)C4)ccc32)C1 [Example 17-120]
